Where “and” joins values, the source holds several entries; their conditions need not be identical. Equal entries are not always repeated. Toxic doses and inconclusive results are not listed. Rule as the data show it: active = T/C of 150% or more; inactive = T/C below 125%.
Tested on: L1210 leukemia ip in BDF1 mice, survival T/C
Experiment: NCI In Vivo Anticancer Drug Screen. Data for tumor model L1210 Leukemia (intraperitoneal) in B6D2F1 (BDF1) mice
Conditions: higher = longer survival
In short: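 Transplanted-tumor mice were given test agent; controls received vehicle only. Survival readings from the two groups were divided (treated over control).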

Measured: T/C

CSc1ncnc2nc[nH]c12
inactive: endpoint: mean survival time, dose: 1.5 mg/kg/injection, schedule: Q01DX Z (ip), vehicle: saline 95 % of control | endpoint: mean survival time, dose: 3.0 mg/kg/injection, schedule: Q01DX Z (ip), vehicle: saline 95 % of control | endpoint: mean survival time, dose: 6.0 mg/kg/injection, schedule: Q01DX Z (ip), vehicle: saline 103 % of control | endpoint: mean survival time, dose: 12.0 mg/kg/injection, schedule: Q01DX Z (ip), vehicle: saline 95 % of control | endpoint: mean survival time, dose: 12.5 mg/kg/injection, schedule: Q#A X Z (ip), vehicle: saline 108 % of control | endpoint: mean survival time, dose: 25.0 mg/kg/injection, schedule: Q01DX006 (iv), vehicle: saline 103 % of control | endpoint: mean survival time, dose: 25.0 mg/kg/injection, schedule: Q01DX009 (ip), vehicle: saline 97 % of control | endpoint: mean survival time, dose: 25.0 mg/kg/injection, schedule: Q01DX010 (ip), vehicle: saline 92 % of control | endpoint: mean survival time, dose: 25.0 mg/kg/injection, schedule: Q01DX Z (im), vehicle: methylcellulose (MC) 94 % of control | endpoint: mean survival time, dose: 25.0 mg/kg/injection, schedule: Q01DX Z (ip), vehicle: saline 101 % of control | endpoint: mean survival time, dose: 25.0 mg/kg/injection, schedule: Q01DX Z (sc), vehicle: methylcellulose (MC) 117 % of control | endpoint: mean survival time, dose: 25.0 mg/kg/injection, schedule: Q#A X Z (ip), vehicle: saline 103 % of control | endpoint: mean survival time, dose: 30.0 mg/kg/injection, schedule: Q01DX015 (ip), vehicle: carboxymethylcellulose (CMC) 114 % of control | endpoint: mean survival time, dose: 45.0 mg/kg/injection, schedule: Q01DX015 (ip), vehicle: carboxymethylcellulose (CMC) 104 % of control | endpoint: mean survival time, dose: 50.0 mg/kg/injection, schedule: Q01DX006 (iv), vehicle: saline 100 % of control | endpoint: mean survival time, dose: 50.0 mg/kg/injection, schedule: Q01DX009 (ip), vehicle: saline 102 % of control and 104 % of control | endpoint: mean survival time, dose: 50.0 mg/kg/injection, schedule: Q01DX010 (ip), vehicle: saline 89 % of control | endpoint: mean survival time, dose: 50.0 mg/kg/injection, schedule: Q01DX Z (im), vehicle: methylcellulose (MC) 107 % of control | endpoint: mean survival time, dose: 50.0 mg/kg/injection, schedule: Q01DX Z (ip), vehicle: saline 105 % of control | endpoint: mean survival time, dose: 50.0 mg/kg/injection, schedule: Q01DX Z (sc), vehicle: methylcellulose (MC) 96 % of control | endpoint: mean survival time, dose: 50.0 mg/kg/injection, schedule: Q#A X Z (ip), vehicle: saline 112 % of control | endpoint: mean survival time, dose: 60.0 mg/kg/injection, schedule: Q01DX015 (ip), vehicle: carboxymethylcellulose (CMC) 114 % of control | endpoint: mean survival time, dose: 75.0 mg/kg/injection, schedule: Q01DX015 (ip), vehicle: carboxymethylcellulose (CMC) 108 % of control | endpoint: mean survival time, dose: 75.0 mg/kg/injection, schedule: Q03DX Z (ip), vehicle: saline 100 % of control | endpoint: mean survival time, dose: 90.0 mg/kg/injection, schedule: Q01DX015 (ip), vehicle: carboxymethylcellulose (CMC) 109 % of control | endpoint: mean survival time, dose: 100.0 mg/kg/injection, schedule: Q01DX006 (iv), vehicle: saline 108 % of control | endpoint: mean survival time, dose: 100.0 mg/kg/injection, schedule: Q01DX009 (ip), vehicle: saline 102 % of control and 103 % of control | endpoint: mean survival time, dose: 100.0 mg/kg/injection, schedule: Q01DX010 (ip), vehicle: saline 95 % of control and 87 % of control | endpoint: mean survival time, dose: 100.0 mg/kg/injection, schedule: Q01DX Z (im), vehicle: methylcellulose (MC) 89 % of control | endpoint: mean survival time, dose: 100.0 mg/kg/injection, schedule: Q01DX Z (ip), vehicle: saline 111 % of control | endpoint: mean survival time, dose: 100.0 mg/kg/injection, schedule: Q01DX Z (sc), vehicle: methylcellulose (MC) 113 % of control | endpoint: mean survival time, dose: 120.0 mg/kg/injection, schedule: Q01DX001 (ip), vehicle: carboxymethylcellulose (CMC) 95 % of control and 100 % of control | endpoint: mean survival time, dose: 125.0 mg/kg/injection, schedule: Q01DX001 (ip), vehicle: methylcellulose (MC) 105 % of control and 108 % of control | endpoint: mean survival time, dose: 150.0 mg/kg/injection, schedule: Q03DX Z (ip), vehicle: saline 101 % of control | endpoint: mean survival time, dose: 180.0 mg/kg/injection, schedule: Q01DX001 (ip), vehicle: carboxymethylcellulose (CMC) 102 % of control and 106 % of control | endpoint: mean survival time, dose: 200.0 mg/kg/injection, schedule: Q01DX006 (iv), vehicle: saline 97 % of control | endpoint: mean survival time, dose: 200.0 mg/kg/injection, schedule: Q01DX009 (ip), vehicle: saline 97 % of control and 100 % of control | endpoint: mean survival time, dose: 200.0 mg/kg/injection, schedule: Q01DX010 (ip), vehicle: saline 105 % of control | endpoint: mean survival time, dose: 200.0 mg/kg/injection, schedule: Q01DX Z (im), vehicle: methylcellulose (MC) 102 % of control | endpoint: mean survival time, dose: 200.0 mg/kg/injection, schedule: Q01DX Z (ip), vehicle: saline 105 % of control | endpoint: mean survival time, dose: 200.0 mg/kg/injection, schedule: Q01DX Z (sc), vehicle: methylcellulose (MC) 112 % of control | endpoint: mean survival time, dose: 250.0 mg/kg/injection, schedule: Q01DX001 (ip), vehicle: methylcellulose (MC) 106 % of control and 108 % of control | endpoint: mean survival time, dose: 270.0 mg/kg/injection, schedule: Q01DX001 (ip), vehicle: carboxymethylcellulose (CMC) 103 % of control and 117 % of control | endpoint: mean survival time, dose: 300.0 mg/kg/injection, schedule: Q03DX Z (ip), vehicle: saline 100 % of control | endpoint: mean survival time, dose: 500.0 mg/kg/injection, schedule: Q01DX001 (ip), vehicle: methylcellulose (MC) 116 % of control | endpoint: mean survival time, dose: 1000.0 mg/kg/injection, schedule: Q01DX001 (ip), vehicle: methylcellulose (MC) 112 % of control | endpoint: median survival time, dose: 25.0 mg/kg/injection, schedule: Q01DX009 (ip), vehicle: saline 100 % of control | endpoint: median survival time, dose: 50.0 mg/kg/injection, schedule: Q01DX009 (ip), vehicle: saline 95 % of control and 106 % of control | endpoint: median survival time, dose: 100.0 mg/kg/injection, schedule: Q01DX009 (ip), vehicle: saline 100 % of control and 106 % of control | endpoint: median survival time, dose: 200.0 mg/kg/injection, schedule: Q01DX009 (ip), vehicle: saline 100 % of control and 115 % of control

O=C1OC(c2cccc3c(F)cccc23)c2ccccc21 (configuration not stated)
inactive: endpoint: mean survival time, dose: 100.0 mg/kg/injection, schedule: Q01DX009 (ip), vehicle: Klucel (hydroxypropylcellulose) (HPC) 96 % of control | endpoint: mean survival time, dose: 200.0 mg/kg/injection, schedule: Q01DX009 (ip), vehicle: Klucel (hydroxypropylcellulose) (HPC) 95 % of control | endpoint: mean survival time, dose: 400.0 mg/kg/injection, schedule: Q01DX009 (ip), vehicle: Klucel (hydroxypropylcellulose) (HPC) 93 % of control

Clc1ccc(CSC2=NCCN2)cc1
inactive: endpoint: mean survival time, dose: 12.5 mg/kg/injection, schedule: Q04DX003 (ip), vehicle: saline 94 % of control | endpoint: mean survival time, dose: 25.0 mg/kg/injection, schedule: Q04DX003 (ip), vehicle: saline 93 % of control | endpoint: mean survival time, dose: 50.0 mg/kg/injection, schedule: Q04DX003 (ip), vehicle: saline 98 % of control

CC(C)CCCC(C)C1CCC2C3CC(O)C45CC4CCC5(C)C3CCC12C (configuration not stated)
inactive: endpoint: mean survival time, dose: 200.0 mg/kg/injection, schedule: Q04DX002 (ip), vehicle: Klucel (hydroxypropylcellulose) (HPC) 89 % of control | endpoint: mean survival time, dose: 400.0 mg/kg/injection, schedule: Q04DX002 (ip), vehicle: Klucel (hydroxypropylcellulose) (HPC) 92 % of control

NC(N)=N/N=C\c1ccc(O)c(O)c1
inactive: endpoint: mean survival time, dose: 15.0 mg/kg/injection, schedule: Q01DX Z (ip), vehicle: carboxymethylcellulose (CMC) 97 % of control | endpoint: mean survival time, dose: 30.0 mg/kg/injection, schedule: Q01DX Z (ip), vehicle: carboxymethylcellulose (CMC) 97 % of control | endpoint: mean survival time, dose: 60.0 mg/kg/injection, schedule: Q01DX Z (ip), vehicle: carboxymethylcellulose (CMC) 113 % of control | endpoint: mean survival time, dose: 120.0 mg/kg/injection, schedule: Q01DX Z (ip), vehicle: carboxymethylcellulose (CMC) 116 % of control | endpoint: mean survival time, dose: 120.0 mg/kg/injection, schedule: Q01DX Z (oral), vehicle: carboxymethylcellulose (CMC) 109 % of control | endpoint: mean survival time, dose: 240.0 mg/kg/injection, schedule: Q01DX Z (oral), vehicle: carboxymethylcellulose (CMC) 107 % of control | endpoint: mean survival time, dose: 480.0 mg/kg/injection, schedule: Q01DX Z (oral), vehicle: carboxymethylcellulose (CMC) 103 % of control | endpoint: mean survival time, dose: 960.0 mg/kg/injection, schedule: Q01DX Z (oral), vehicle: carboxymethylcellulose (CMC) 114 % of control

CCC#CC(O)(C(=O)OC)c1ccccc1 (configuration not stated)
inactive: endpoint: mean survival time, dose: 100.0 mg/kg/injection, schedule: Q01DX001 (ip), vehicle: carboxymethylcellulose (CMC) 100 % of control | endpoint: mean survival time, dose: 200.0 mg/kg/injection, schedule: Q01DX001 (ip), vehicle: carboxymethylcellulose (CMC) 108 % of control | endpoint: mean survival time, dose: 400.0 mg/kg/injection, schedule: Q01DX001 (ip), vehicle: carboxymethylcellulose (CMC) 96 % of control

CC(C)CC/C=C/c1ccccc1
inactive: endpoint: mean survival time, dose: 100.0 mg/kg/injection, schedule: Q04DX002 (ip), vehicle: saline with Tween-80 92 % of control | endpoint: mean survival time, dose: 200.0 mg/kg/injection, schedule: Q04DX002 (ip), vehicle: saline with Tween-80 104 % of control | endpoint: mean survival time, dose: 400.0 mg/kg/injection, schedule: Q04DX002 (ip), vehicle: saline with Tween-80 92 % of control

— PubChem BioAssay AID248 (DTP/NCI, 2004)
